# Test results: US20240000736A1, “INHIBITION OF PROTEIN AMYLOID AGGREGATION USING FLUORINATED BENZENESULFONAMIDES” (Vilnius University, priority 2022, published 2024)
row,melting point,SMILES
1,69 to 71 °C,"CCCCCCCCNc1c(F)c(SCCc2ccc(C(=O)O)cc2)c(F)c(F)c1S(N)(=O)=O [MZ20-07, 4-[2-[2,3,6-Trifluoro-5-(octylamino)-4-sulfamoyl-phenyl]sulfanylethyl]benzoic acid]"
2,186 to 188 °C,"NS(=O)(=O)c1c(F)c(F)c(Sc2ccc(C(=O)O)cc2)c(F)c1NC1CCCCCCCCCCC1 [MZ21-02, 4-[3-(Cyclododecylamino)-2,5,6-trifluoro-4-sulfamoyl-phenyl]sulfanylbenzoic acid]"
3,110 to 112 °C,"CCCCCCNc1c(F)c(SCCc2ccc(C(=O)O)cc2)c(F)c(F)c1S(N)(=O)=O [MZ21-06, 4-[2-[2,3,6-Trifluoro-5-(hexylamino)-4-sulfamoyl-phenyl]sulfanylethyl]benzoic acid]"
4,190 to 191 °C,"NS(=O)(=O)c1c(F)c(F)c(SCc2ccc(C(=O)O)cc2)c(F)c1NC1CCCCCCCCCCC1 [MZ21-10, 4-[[3-(Cyclododecylamino)-2,5,6-trifluoro-4-sulfamoyl-phenyl]sulfanylmethyl]benzoic acid]"
5,66 to 68 °C,"CCCCCCCNc1c(F)c(SCCc2ccc(C(=O)O)cc2)c(F)c(F)c1S(N)(=O)=O [MZ21-11, 4-[2-[2,3,6-Trifluoro-5-(heptylamino)-4-sulfamoyl-phenyl]sulfanylethyl]benzoic acid]"
6,66 to 67 °C,"CCCCCCCCCNc1c(F)c(SCCc2ccc(C(=O)O)cc2)c(F)c(F)c1S(N)(=O)=O [MZ21-12, 4-[2-[2,3,6-Trifluoro-5-(nonylamino)-4-sulfamoyl-phenyl]sulfanylethyl]benzoic acid]"
7,148 to 150 °C,"NS(=O)(=O)c1c(F)c(F)c(Sc2ccc(CC(=O)O)cc2)c(F)c1NC1CCCCCCCCCCC1 [MZ21-18, 2-[4-(3-(Cyclododecylamino)-2,5,6-trifluoro-4-sulfamoylphenyl)sulfanylphenyl]acetic acid]"
8,157 to 158 °C,"NS(=O)(=O)c1c(F)c(F)c(SCc2ccc(C(=O)O)cc2)c(F)c1NCC1CCCCCCC1 [MZ21-23, 4-[[3-(Cyclooctylmethylamino)-2,5,6-trifluoro-4-sulfamoyl-phenyl]sulfanylmethyl]benzoic acid]"
9,176 °C,"NS(=O)(=O)c1c(F)c(F)c(SCc2ccc(C(=O)O)cc2)c(F)c1NC1CCCCCCCCC1 [MZ21-25, 4-[[3-(Cyclodecylamino)-2,5,6-trifluoro-4-sulfamoyl-phenyl]sulfanylmethyl]benzoic acid]"
10,109 to 111 °C,"NS(=O)(=O)c1c(F)c(F)c(SCc2cccc(C(=O)O)c2)c(F)c1NC1CCCCCCCCCCC1 [MZ21-26, 3-[[3-(Cyclododecylamino)-2,5,6-trifluoro-4-sulfamoyl-phenyl]sulfanylmethyl]benzoic acid]"
11,149 °C,"CCCC(CCC)CCNc1c(F)c(SCc2ccc(C(=O)O)cc2)c(F)c(F)c1S(N)(=O)=O [MZ21-35, 4-[[2,3,6-Trifluoro-5-(3-propylhexylamino)-4-sulfamoyl-phenyl]sulfanylmethyl]benzoic acid]"
12,133 °C,"CCC(C)C(C)CCNc1c(F)c(SCc2ccc(C(=O)O)cc2)c(F)c(F)c1S(N)(=O)=O (stereo not drawn) [MZ21-40, 4-[[3-(3,4-Dimethylhexylamino)-2,5,6-trifluoro-4-sulfamoyl-phenyl]sulfanylmethyl]benzoic acid]"
13,123 to 125 °C,"NS(=O)(=O)c1c(F)c(F)c(Sc2cccc(C(=O)O)c2)c(F)c1NC1CCCCCCCCCCC1 [MZ22-07, 3-[3-(Cyclododecylamino)-2,5,6-trifluoro-4-sulfamoyl-phenyl]sulfanylbenzoic acid]"
14,85 °C,"NS(=O)(=O)c1c(F)c(F)c(Sc2ccccc2C(=O)O)c(F)c1NC1CCCCCCCCCCC1 [MZ22-10, 2-[3-(Cyclododecylamino)-2,5,6-trifluoro-4-sulfamoyl-phenyl]sulfanylbenzoic acid]"
15,166 to 168 °C,"NS(=O)(=O)c1c(F)c(F)c(SCCc2ccc(C(=O)O)cc2)c(F)c1NC1CCCCCCC1 [VR16-10, 4-[2-[3-(Cyclooctylamino)-2,5,6-trifluoro-4-sulfamoyl-phenyl]sulfanylethyl]benzoic acid]"
